Consider 2 molecules from article PMC10648875 (Antimicrobial Agents and Chemotherapy, 2023).

Common to all, as to experiment: MIC, engineered isogenic strain
Holding throughout (format): cell-based, P. aeruginosa

Assay [1] has as its system PAM4823 producing CTX-M-27. Conditions: CTX-M-27, class A; BLIs at fixed 4 µg/mL.
In a further assay the test system is PAM4800 producing GES-19. Conditions: GES-19, class A; BLIs at fixed 4 µg/mL.
For a further assay, the system named is PAM4135 producing KPC-2. Conditions: KPC-2, class A; BLIs at fixed 4 µg/mL.
The test system of a further assay is PAM4744 producing SME-2. Particulars: SME-2, class A; BLIs at fixed 4 µg/mL.
For a further assay, the system named is PAM4910 producing VEB-2. Conditions: VEB-2, class A; BLIs at fixed 4 µg/mL.
In another assay the test system is PAM4186 producing CMY-2. Particulars: CMY-2, class C; BLIs at fixed 4 µg/mL.
The test system of a further assay is PAM4827 producing OXA-1. Particulars: OXA-1, class D; BLIs at fixed 4 µg/mL.
The subject of another assay is PAM4846 producing OXA-9. Particulars: OXA-9, class D; BLIs at fixed 4 µg/mL.
For another assay, the system named is PAM4798 producing VIM-2. Particulars: VIM-2, class B; BLIs at fixed 4 µg/mL.
The subject of another assay is PAM4880 producing L1. Particulars: L1, class B; BLIs at fixed 4 µg/mL.

Values after ≈ are worked out from the molar mass of the structure shown.

For the molecule `CO/N=C(\C(=O)N[C@@H]1C(=O)N2C(C(=O)[O-])=C(C[N+]3(C)CCCC3)CS[C@H]12)c1csc(N)n1` [FEP, cefepime], the minimum inhibitory concentration (MIC) in [1] is over 64 µg/mL; against PAM4800 producing GES-19, 64 µg/mL (≈ 133 µM); with PAM4135 producing KPC-2, over 64 µg/mL; with PAM4744 producing SME-2, 0.5 µg/mL (≈ 1.04 µM); in the assay with PAM4910 producing VEB-2, over 64 µg/mL; against PAM4186 producing CMY-2 it was 1 µg/mL (≈ 2.08 µM). Further, the minimal inhibitory concentration (MIC) is 1 µg/mL (≈ 2.08 µM) in the assay on PAM4827 producing OXA-1, 2 µg/mL (≈ 4.16 µM) against PAM4846 producing OXA-9, 8 µg/mL (≈ 16.6 µM) in the assay with PAM4798 producing VIM-2 and 4 µg/mL (≈ 8.32 µM) against PAM4880 producing L1.
`C[C@@H](O)[C@H]1C(=O)N2C(C(=O)O)=C(S[C@@H]3CN[C@H](C(=O)N(C)C)C3)[C@H](C)[C@H]12` [MEM, meropenem]: the MIC in assay [1] amounted to 0.5 µg/mL (≈ 1.3 µM); in the assay on PAM4800 producing GES-19, 1 µg/mL (≈ 2.61 µM); in the assay with PAM4135 producing KPC-2, 32 µg/mL (≈ 83.4 µM); against PAM4744 producing SME-2, 8 µg/mL (≈ 20.9 µM); against PAM4910 producing VEB-2 it was 0.25 µg/mL (≈ 0.652 µM); against PAM4186 producing CMY-2 it was 0.25 µg/mL (≈ 0.652 µM). The MIC in the assay on PAM4827 producing OXA-1 was at most 0.06 µg/mL; in the assay with PAM4846 producing OXA-9 it was 0.25 µg/mL (≈ 0.652 µM); against PAM4798 producing VIM-2, 8 µg/mL (≈ 20.9 µM); in the assay on PAM4880 producing L1, 32 µg/mL (≈ 83.4 µM).
